Patent US10125129B2 (priority 2016, dated 2018)
Like-named read-outs stand apart in the source and are kept apart here.

Target: T1, μ opioid receptor (MOR) (Homo sapiens, UniProt P35372)
T1 construct: expressed in transfected cells
Test: cell-based
Type: cell-based

T1 sequence (P35372 whole entry): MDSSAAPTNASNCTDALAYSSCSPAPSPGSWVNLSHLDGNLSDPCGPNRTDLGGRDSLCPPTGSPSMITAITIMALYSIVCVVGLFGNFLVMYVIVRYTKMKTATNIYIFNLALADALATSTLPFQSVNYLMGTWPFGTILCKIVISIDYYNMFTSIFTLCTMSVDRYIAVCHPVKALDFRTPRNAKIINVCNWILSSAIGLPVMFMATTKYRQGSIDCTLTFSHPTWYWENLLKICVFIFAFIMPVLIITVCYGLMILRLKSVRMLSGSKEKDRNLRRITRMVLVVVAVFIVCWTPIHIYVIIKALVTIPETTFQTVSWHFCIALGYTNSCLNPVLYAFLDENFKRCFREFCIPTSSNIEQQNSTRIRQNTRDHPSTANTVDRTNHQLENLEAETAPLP

SMILES | EC50 (Series 1 EC50) | EC50 (Series 2 EC50) | also measured
COC(=O)[C@@H]1C[C@H](OC(=O)c2ccccc2[N+](=O)[O-])C(=O)[C@H]2[C@@]1(C)CC[C@H]1C(=O)O[C@H](c3ccoc3)C[C@]21C [Series 1 Entry 2] | 2 ± 1 µM |  | 
COC(=O)[C@@H]1C[C@H](OC(=O)c2cccc([N+](=O)[O-])c2)C(=O)[C@H]2[C@@]1(C)CC[C@H]1C(=O)O[C@H](c3ccoc3)C[C@]21C [Series 1 Entry 3] | 3.5 ± 0.2 µM |  | 
COC(=O)[C@@H]1C[C@H](OC(=O)c2ccccc2Cl)C(=O)[C@H]2[C@@]1(C)CC[C@H]1C(=O)O[C@H](c3ccoc3)C[C@]21C [Series 1 Entry 5, (2S,4aR,6aR,7R,9S,10aS,10bR)-Methyl 9-((2-chlorobenzoyl)oxy)-2-(furan-3-yl)-6a,10b-dimethyl-4,10-dioxododecahydro-1H-benzo[f]isochromene-7-carboxylate] | 3.4 ± 0.2 µM |  | 
COC(=O)[C@@H]1C[C@H](OC(=O)c2cccc(Cl)c2)C(=O)[C@H]2[C@@]1(C)CC[C@H]1C(=O)O[C@H](c3ccoc3)C[C@]21C [Series 1 Entry 6, (2S,4aR,6aR,7R,9S,10aS,10bR)-Methyl 9-((3-chlorobenzoyl)oxy)-2-(furan-3-yl)-6a,10b-dimethyl-4,10-dioxododecahydro-1H-benzo[f]isochromene-7-carboxylate] | 2.4 ± 0.1 µM |  | 
COC(=O)[C@@H]1C[C@H](OC(=O)c2ccc(Cl)cc2)C(=O)[C@H]2[C@@]1(C)CC[C@H]1C(=O)O[C@H](c3ccoc3)C[C@]21C [Series 1 Entry 7, (2S,4aR,6aR,7R,9S,10aS,10bR)-Methyl 9-((4-chlorobenzoyl)oxy)-2-(furan-3-yl)-6a,10b-dimethyl-4,10-dioxododecahydro-1H-benzo[f]isochromene-7-carboxylate] | 0.7 ± 0.1 µM |  | 
COC(=O)[C@@H]1C[C@H](OC(=O)c2ccccc2F)C(=O)[C@H]2[C@@]1(C)CC[C@H]1C(=O)O[C@H](c3ccoc3)C[C@]21C [Series 1 Entry 8, (2S,4aR,6aR,7R,9S,10aS,10bR)-Methyl 9-((2-fluorobenzoyl)oxy)-2-(furan-3-yl)-6a,10b-dimethyl-4,10-dioxododecahydro-1H-benzo[f]isochromene-7-carboxylate] | 0.4 ± 0.1 µM |  | 
COC(=O)[C@@H]1C[C@H](OC(=O)c2cccc(F)c2)C(=O)[C@H]2[C@@]1(C)CC[C@H]1C(=O)O[C@H](c3ccoc3)C[C@]21C [Series 1 Entry 9, (2S,4aR,6aR,7R,9S,10aS,10bR)-Methyl 9-((3-fluorobenzoyl)oxy)-2-(furan-3-yl)-6a,10b-dimethyl-4,10-dioxododecahydro-1H-benzo[f]isochromene-7-carboxylate] | 0.46 ± 0.08 µM |  | 
COC(=O)[C@@H]1C[C@H](OC(=O)c2ccc(F)cc2)C(=O)[C@H]2[C@@]1(C)CC[C@H]1C(=O)O[C@H](c3ccoc3)C[C@]21C [Series 1 Entry 10, (2S,4aR,6aR,7R,9S,10aS,10bR)-Methyl 9-((4-fluorobenzoyl)oxy)-2-(furan-3-yl)-6a,10b-dimethyl-4,10-dioxododecahydro-1H-benzo[f]isochromene-7-carboxylate] | 0.8 ± 0.2 µM |  | 
COC(=O)[C@@H]1C[C@H](OC(=O)c2ccccc2C)C(=O)[C@H]2[C@@]1(C)CC[C@H]1C(=O)O[C@H](c3ccoc3)C[C@]21C [Series 1 Entry 11, (2S,4aR,6aR,7R,9S,10aS,10bR)-Methyl 2-(furan-3-yl)-6a,10b-dimethyl-9-((2-methylbenzoyl)oxy)-4,10-dioxododecahydro-1H-benzo[f]isochromene-7-carboxylate] | 1.6 ± 0.4 µM |  | 
COC(=O)[C@@H]1C[C@H](OC(=O)c2cccc(C)c2)C(=O)[C@H]2[C@@]1(C)CC[C@H]1C(=O)O[C@H](c3ccoc3)C[C@]21C [Series 1 Entry 12, (2S,4aR,6aR,7R,9S,10aS,10bR)-Methyl 2-(furan-3-yl)-6a,10b-dimethyl-9-((3-methylbenzoyl)oxy)-4,10-dioxododecahydro-1H-benzo[f]isochromene-7-carboxylate] | 1.8 ± 0.3 µM |  | 
COC(=O)[C@@H]1C[C@H](OC(=O)c2ccc(C)cc2)C(=O)[C@H]2[C@@]1(C)CC[C@H]1C(=O)O[C@H](c3ccoc3)C[C@]21C [Series 1 Entry 13, (2S,4aR,6aR,7R,9S,10aS,10bR)-Methyl 2-(furan-3-yl)-6a,10b-dimethyl-9-((4-methylbenzoyl)oxy)-4,10-dioxododecahydro-1H-benzo[f]isochromene-7-carboxylate] | 0.43 ± 0.01 µM |  | 
COC(=O)[C@@H]1C[C@H](OC(=O)c2ccccc2OC)C(=O)[C@H]2[C@@]1(C)CC[C@H]1C(=O)O[C@H](c3ccoc3)C[C@]21C [Series 1 Entry 14] | 3.3 ± 0.3 µM |  | 
COC(=O)[C@@H]1C[C@H](OC(=O)c2cccc(OC)c2)C(=O)[C@H]2[C@@]1(C)CC[C@H]1C(=O)O[C@H](c3ccoc3)C[C@]21C [Series 1 Entry 15] | 0.33 ± 0.02 µM |  | 
COC(=O)[C@@H]1C[C@H](OC(=O)c2ccccn2)C(=O)[C@H]2[C@@]1(C)CC[C@H]1C(=O)O[C@H](c3ccoc3)C[C@]21C [Series 1 Entry 17, (2S,4aR,6aR,7R,9S,10aS,10bR)-2-(furan-3-yl)-7-(methoxycarbonyl)-6a,10b-dimethyl-4,10-dioxododecahydro-2H-benzo[f]isochromen-9-yl picolinate] | > 50 µM |  | 
COC(=O)[C@@H]1C[C@H](OC(=O)c2cccnc2)C(=O)[C@H]2[C@@]1(C)CC[C@H]1C(=O)O[C@H](c3ccoc3)C[C@]21C [Series 1 Entry 18] | 0.24 ± 0.02 µM |  | 
COC(=O)[C@@H]1C[C@H](OC(=O)c2ccncc2)C(=O)[C@H]2[C@@]1(C)CC[C@H]1C(=O)O[C@H](c3ccoc3)C[C@]21C [Series 1 Entry 19, (2S,4aR,6aR,7R,9S,10aS,10bR)-2-(furan-3-yl)-7-(methoxycarbonyl)-6a,10b-dimethyl-4,10-dioxododecahydro-2H-benzo[f]isochromen-9-yl isonicotinate] | 0.34 ± 0.01 µM |  | 
COC(=O)[C@@H]1C[C@H](OC(=O)c2cccs2)C(=O)[C@H]2[C@@]1(C)CC[C@H]1C(=O)O[C@H](c3ccoc3)C[C@]21C [Series 1 Entry 20] | 0.33 ± 0.07 µM |  | 
COC(=O)[C@@H]1C=C(OC(=O)c2ccccc2[N+](=O)[O-])C(=O)[C@H]2[C@@]1(C)CC[C@H]1C(=O)O[C@H](c3ccoc3)C[C@]21C [Series 2 Entry 2, (2S,4aR,6aR,7R,10aR,10bR)-Methyl 2-(furan-3-yl)-6a,10b-dimethyl-9-((2-nitrobenzoyl)oxy)-4,10-dioxo-2,4,4a,5,6,6a,7,10,10a-decahydro-1H-benzo[f]isochromene-7-carboxylate] |  | 1.9 ± 0.6 µM | 
COC(=O)[C@@H]1C=C(OC(=O)c2cccc([N+](=O)[O-])c2)C(=O)[C@H]2[C@@]1(C)CC[C@H]1C(=O)O[C@H](c3ccoc3)C[C@]21C [Series 2 Entry 3, (2S,4aR,6aR,7R,10aR,10bR)-Methyl 2-(furan-3-yl)-6a,10b-dimethyl-9-((3-nitrobenzoyl)oxy)-4,10-dioxo-2,4,4a,5,6,6a,7,10,10a,10b-decahydro-1H-benzo[f]isochromene-7-carboxylate] |  | 0.32 ± 0.01 µM | 
COC(=O)[C@@H]1C=C(OC(=O)c2ccc([N+](=O)[O-])cc2)C(=O)[C@H]2[C@@]1(C)CC[C@H]1C(=O)O[C@H](c3ccoc3)C[C@]21C [Series 2 Entry 4, (2S,4aR,6aR,7R,10aR,10bR)-Methyl 2-(furan-3-yl)-6a,10b-dimethyl-9-((4-nitrobenzoyl)oxy)-4,10-dioxo-2,4,4a,5,6,6a,7,10,10a,10b-decahydro-1H-benzo[f]isochromene-7-carboxylate] |  |  | EC50 (read-out: Series 2 EC50): 0.031 ± 0.002 µM
COC(=O)[C@@H]1C=C(OC(=O)c2ccccc2Cl)C(=O)[C@H]2[C@@]1(C)CC[C@H]1C(=O)O[C@H](c3ccoc3)C[C@]21C [Series 2 Entry 5, (2S,4aR,6aR,7R,10aR,10bR)-Methyl 9-((2-chlorobenzoyl)oxy)-2-(furan-3-yl)-6a,10b-dimethyl-4,10-dioxo-2,4,4a,5,6,6a,7,10,10a,10b-decahydro-1H-benzo[f]isochromene-7-carboxylate] |  | 0.29 ± 0.02 µM | 
COC(=O)[C@@H]1C=C(OC(=O)c2cccc(Cl)c2)C(=O)[C@H]2[C@@]1(C)CC[C@H]1C(=O)O[C@H](c3ccoc3)C[C@]21C [Series 2 Entry 6, (2S,4aR,6aR,7R,10aR,10bR)-Methyl 9-((3-chlorobenzoyl)oxy)-2-(furan-3-yl)-6a,10b-dimethyl-4,10-dioxo-2,4,4a,5,6,6a,7,10,10a,10b-decahydro-1H-benzo[f]isochromene-7-carboxylate] |  | 0.25 ± 0.03 µM | 
COC(=O)[C@@H]1C=C(OC(=O)c2ccc(Cl)cc2)C(=O)[C@H]2[C@@]1(C)CC[C@H]1C(=O)O[C@H](c3ccoc3)C[C@]21C [Series 2 Entry 7, (2S,4aR,6aR,7R,10aR,10bR)-Methyl 9-((4-chlorobenzoyl)oxy)-2-(furan-3-yl)-6a,10b-dimethyl-4,10-dioxo-2,4,4a,5,6,6a,7,10,10a,10b-decahydro-1H-benzo[f]isochromene-7-carboxylate] |  | 0.029 ± 0.008 µM | 
COC(=O)[C@@H]1C=C(OC(=O)c2ccccc2F)C(=O)[C@H]2[C@@]1(C)CC[C@H]1C(=O)O[C@H](c3ccoc3)C[C@]21C [Series 2 Entry 8] |  | 0.0047 ± 0.0004 µM | 
COC(=O)[C@@H]1C=C(OC(=O)c2cccc(F)c2)C(=O)[C@H]2[C@@]1(C)CC[C@H]1C(=O)O[C@H](c3ccoc3)C[C@]21C [Series 2 Entry 9, (2S,4aR,6aR,7R,10aR,10bR)-Methyl 9-((3-fluorobenzoyl)oxy)-2-(furan-3-yl)-6a,10b-dimethyl-4,10-dioxo-2,4,4a,5,6,6a,7,10,10a,10b-decahydro-1H-benzo[f]isochromene-7-carboxylate] |  | 0.015 ± 0.002 µM | 
COC(=O)[C@@H]1C=C(OC(=O)c2ccc(F)cc2)C(=O)[C@H]2[C@@]1(C)CC[C@H]1C(=O)O[C@H](c3ccoc3)C[C@]21C [Series 2 Entry 10, (2S,4aR,6aR,7R,10aR,10bR)-Methyl 9-((4-fluorobenzoyl)oxy)-2-(furan-3-yl)-6a,10b-dimethyl-4,10-dioxo-2,4,4a,5,6,6a,7,10,10a,10b-decahydro-1H-benzo[f]isochromene-7-carboxylate] |  | 0.005 ± 0.001 µM | 
